Values after ≈ are worked out from the molar mass of the structure shown.
Key:
[1] = tested on: Gram-positive bacteria, Trichophyton and Mycoplasma; settings: cited from earlier work
[2] = acute toxicity (LD50) in mice; settings: mouse, in vivo, iv; interaneveously administered to mice
Description: (§1) Thus, nanaomycin E is of interest as an antibacterial and therapeutic agent for humans and animals.

[3] = tested on: Staphylococcus aureus KB 64 (erythromycin- and tetracycline-resistant); assay: antibacterial spectrum, MIC by agar dilution; type: cell-based; settings: nutrient agar pH 7.0, 37° C., 20 hours
Candida albicans = assay: antifungal spectrum, MIC by agar dilution; type: cell-based; settings: potato-agar pH 6.4, 27° C., 70 hours
Escherichia coli NIHJ = assay: antibacterial spectrum, MIC by agar dilution; type: cell-based; settings: nutrient agar pH 7.0, 37° C., 20 hours
Bacillus cereus T = assay: antibacterial spectrum, MIC by agar dilution; type: cell-based; settings: nutrient agar pH 7.0, 37° C., 20 hours
[4] = tested on: Trichophyton interdigitale; assay: antifungal spectrum, MIC by agar dilution; type: cell-based; settings: potato-agar pH 6.4, 27° C., 70 hours
Saccharomyces sake = assay: antifungal spectrum, MIC by agar dilution; type: cell-based; settings: potato-agar pH 6.4, 27° C., 70 hours
[5] = tested on: Staphylococcus aureus FS 1277 (penicillin-resistant); assay: antibacterial spectrum, MIC by agar dilution; type: cell-based; settings: nutrient agar pH 7.0, 37° C., 20 hours
[6] = tested on: Proteus vulgaris IFO 3167; assay: antibacterial spectrum, MIC by agar dilution; type: cell-based; settings: IFO3167, nutrient agar pH 7.0, 37° C., 20 hours
Salmonella typhimurium = assay: antibacterial spectrum, MIC by agar dilution; type: cell-based; settings: Salmonella enterica, nutrient agar pH 7.0, 37° C., 20 hours
Microsporum gypseum = assay: antifungal spectrum, MIC by agar dilution; type: cell-based; settings: Nannizzia gypsea, potato-agar pH 6.4, 27° C., 70 hours
solubility = type: physicochemical
[7] = tested on: Gram-positive bacteria and fungi; assay: activity against Gram-positive bacteria and fungi compared with nanaomycin A and D; type: cell-based
Experimental: (§2) The antibacterial and antifungal spectrum of nanaomycin E is shown in Table 1, in which the minimum inhibitory concentration (MIC) is determined by the agar dilution method. In the case of bacteria, the determination was made after culturing at 37° C. for 20 hours by using a nutrient agar having a pH of 7.0 and, in the cases of fungi, the determination was made after culturing at 27° C. for 70 hours by using a potato-agar having a pH of 6.4.
as §1

[8] = tested on: Aspergillus niger ATCC 6275; assay: antifungal spectrum, MIC by agar dilution; type: cell-based; settings: ATCC6275, potato-agar pH 6.4, 27° C., 70 hours
Trichophyton schoenleini = assay: antifungal spectrum, MIC by agar dilution; type: cell-based; settings: potato-agar pH 6.4, 27° C., 70 hours
Trichophyton rubrum = assay: antifungal spectrum, MIC by agar dilution; type: cell-based; settings: potato-agar pH 6.4, 27° C., 70 hours
[9] = tested on: Bacillus subtilis PCI 219; assay: antibacterial spectrum, MIC by agar dilution; type: cell-based; settings: PCI219, nutrient agar pH 7.0, 37° C., 20 hours
Nocardia asteroides = assay: antibacterial spectrum, MIC by agar dilution; type: cell-based; settings: nutrient agar pH 7.0, 37° C., 20 hours
[10] = tested on: Pseudomonas aeruginosa P 3; assay: antibacterial spectrum, MIC by agar dilution; type: cell-based; settings: P3, nutrient agar pH 7.0, 37° C., 20 hours
Shigella sonnei E 33 = assay: antibacterial spectrum, MIC by agar dilution; type: cell-based; settings: E33, nutrient agar pH 7.0, 37° C., 20 hours
Experimental: as §2

Piricularia oryzae = assay: microbe, parasite or virus in culture; type: cell-based; settings: pH 6.4; 27° C., 70 hours
[11] = tested on: Staphylococcus aureus FDA 209P; assay: antibacterial spectrum, MIC by agar dilution; type: cell-based; settings: FDA209P, nutrient agar pH 7.0, 37° C., 20 hours
Sarcina lutea PCI 1001 = assay: antibacterial spectrum, MIC by agar dilution; type: cell-based; settings: Micrococcus luteus, PCI1001, nutrient agar pH 7.0, 37° C., 20 hours
[12] = tested on: Trichophyton mentagrophytes; assay: antifungal spectrum, MIC by agar dilution; type: cell-based; settings: potato-agar pH 6.4, 27° C., 70 hours
[13] = tested on: Mycobacterium smegmatis ATCC 607; assay: antibacterial spectrum, MIC by agar dilution; type: cell-based; settings: Mycolicibacterium smegmatis, ATCC607, nutrient agar pH 7.0, 37° C., 20 hours

SMILES: CC1OC(CC(=O)O)CC2=C1C(=O)c1c(O)cccc1C2=O (stereo not drawn) [nanaomycin A]
- antibiotic activity ([1]; against Gram-positive bacteria, Trichophyton and Mycoplasma, known compound): having antibiotic activity against Gram-positive bacteria, Trichophyton and Mycoplasma
- activity against Gram-positive bacteria, Trichophyton and Mycoplasma ([1]; among nanaomycin-type compounds): exhibits the strongest activity
- LD50 [2]: 46 mg/kg

SMILES: CC1OC2CC(=O)OC2C2=C1C(=O)c1c(O)cccc1C2=O (stereo not drawn) [nanaomycin D]
- LD50 [2]: 1.5 mg/kg

SMILES: CC1OC(CC(=O)O)CC23OC12C(=O)c1c(O)cccc1C3=O (stereo not drawn) [nanaomycin E]
- MIC [3]: 25 µg/mL (≈ 78.5 µM)
- MIC (Candida albicans): > 100 µg/mL
- MIC (Escherichia coli NIHJ): 50 µg/mL (≈ 157 µM)
- MIC (Bacillus cereus T): 12.5 µg/mL (≈ 39.3 µM)
- MIC [4]: 50 µg/mL (≈ 157 µM)
- MIC (Saccharomyces sake): > 100 µg/mL
- MIC [5]: 25 µg/mL (≈ 78.5 µM)
- MIC [6]: 25 µg/mL (≈ 78.5 µM)
- MIC (Salmonella typhimurium): > 100 µg/mL
- MIC (Microsporum gypseum): 100 µg/mL (≈ 314 µM)
- Solubility (solubility; in methanol, ethanol, ethyl acetate, butyl acetate etc.): Easily soluble
- Solubility (solubility; in n-hexane, petroleum ether etc.): Insoluble
- activity against Gram-positive bacteria and fungi relative to nanaomycin A and D [7]: approximately equal to or somewhat weaker than the activities of nanaomycin A and D
- MIC [8]: > 100 µg/mL
- MIC (Trichophyton schoenleini): 50 µg/mL (≈ 157 µM)
- LD50 [2]: 60 mg/kg
- MIC (Trichophyton rubrum): 50 µg/mL (≈ 157 µM)
- MIC [9]: 12.5 µg/mL (≈ 39.3 µM)
- MIC (Nocardia asteroides): > 100 µg/mL
- MIC [10]: > 100 µg/mL
- MIC (Shigella sonnei E 33): > 100 µg/mL
- MIC (Piricularia oryzae): 100 µg/mL (≈ 314 µM)
- MIC [11]: 25 µg/mL (≈ 78.5 µM)
- MIC (Sarcina lutea PCI 1001): 25 µg/mL (≈ 78.5 µM)
- MIC [12]: 50 µg/mL (≈ 157 µM)
- MIC [13]: > 100 µg/mL
